Results reported in US10576102B2, “KOC1-derived peptide and vaccine including same” (ONCOTHERAPY SCIENCE, INC., priority 2014, dated 2020).
Entries after “also recorded” stand apart in the source; their conditions may differ.

Key:
peptide-pulsed C1R-A01 [1] = test: In vitro CTL induction, IFN-gamma ELISPOT assay (HLA-A*0101); format: cell-based, human; details: CTLs induced with peptide-pulsed DCs from HLA-A*0101-positive volunteers; day 21; vs peptide-pulsed C1R-A01, compared with unpulsed control
Protocol: C1R (C1R-A01) that stably expresses HLA-A*0101 was used as a stimulator cell. A cDNA encoding the open-reading frame of HLA-A*0101 was amplified by PCR and cloned into an expression vector. C1R cells were transfected with the expression vector, and then selected using G418 (Invitrogen) for two weeks. The G418-selected cells were seeded into wells containing G418-added culture medium in a 96-well plate, and further cultured for 30 days. The exogenous HLA-A*0101 expression in C1R cells was verified by flow cytometric analysis.
Monocyte-derived dendritic cells (DCs) were used as the antigen-presenting cell to induce a cytotoxic T lymphocyte (CTL) response against peptides presented on human leukocyte antigens (HLAs). As described in the other sections, DCs were generated in vitro (Nakahara S et al., Cancer Res 2003, 63(14): 4112-8). Specifically, peripheral-blood mononuclear cells isolated from healthy volunteers (HLA-A*0101-positive) with the Ficoll-Paque plus solution (Pharmacia) were separated by attaching to plastic tissue culture dishes (Becton Dickinson) and concentrated as a monocyte fraction. The monocyte-concentrated population was cultured in the presence of 1000 IU/ml granulocyte macrophage colony-stimulating factor (R&D System) and 1000 IU/ml interleukin(IL)-4 (R&D System) in an AIM-V medium (Invitrogen) containing 2% heat-inactivated autologous serum (AS). After seven days of culturing, the cytokine-induced DCs were pulsed with 20 micro-g/ml each of the synthesized peptides in an AIM-V medium at 37 degrees C. for three hours in the presence of 3 micro-g/ml beta 2-microglobulin. Next, these peptide-pulsed DCs were inactivated by X-ray irradiation (20 Gy), and mixed in a 1:20 ratio with autologous CD8^+ T cells obtained by positive selection using the CD8 Positive Isolation Kit (Dynal). These culture products were seeded in a 48-well plate (Corning). Each well was made to contain 1.5×10^4 peptide-pulsed DCs, 3×10^5 CD8^+ T cells and 10 ng/ml IL-7 (R&D System) in 0.5 ml of the AIM-V/2% AS medium. Three days later, these culture products were added with a final concentration of 20 IU/ml IL-2 (CHIRON). On day 7 and day 14, T cells were further stimulated with peptide-pulsed autologous DCs. The DCs were prepared every time by the same method as above. On day 21, after the third peptide stimulation, CTL activities were examined against the peptide-pulsed C1R-A01 cells (Tanaka H et al., Br J Cancer 2001, 84(1): 94-9; Umano Y et al., Br J Cancer 2001, 84(8): 1052-7; Uchida N et al., Clin Cancer Res 2004, 10(24): 8577-86; Suda T et al., Cancer Sci 2006, 97(5): 411-9; Watanabe T et al., Cancer Sci 2005, 96(8): 498-506).
(§1) Specifically, peptide-pulsed C1R-A01 (1×10^4 cells/well) was prepared as the stimulator cell. The induced CTLs, i.e., CTL lines and CTL clones, were used as the responder cell. The IFN-gamma ELISPOT assay and IFN-gamma ELISA were performed according to the manufacturer's manual.

peptide-pulsed C1R-A01 [2] = test: IFN-gamma ELISA of CTL lines and CTL clone (HLA-A*0101); format: cell-based, human
Protocol: CTLs were propagated in culture using methods similar to those disclosed by Riddell et al. (Walter E A et al., N Engl J Med 1995, 333(16): 1038-44; Riddell S R et al., Nat Med 1996, 2(2): 216-23). The CTLs were co-cultured in a total of 25 ml AIM-V medium containing 5% AS and 40 ng/ml anti-CD3 antibody with two types of Mitomycin C-treated human B lymphoblastoid cell lines at 5×10^6 cells. One day after beginning of the culturing, 120 IU/ml IL-2 was added to the culture. On days 5, 8 and 11, a fresh AIM-V/5% AS medium containing 30 IU/ml IL-2 was added to the culture (Tanaka H et al., Br J Cancer 2001, 84(1): 94-9; Umano Y et al., Br J Cancer 2001, 84(8): 1052-7; Uchida N et al., Clin Cancer Res 2004, 10(24): 8577-86; Suda T et al., Cancer Sci 2006, 97(5): 411-9; Watanabe T et al., Cancer Sci 2005, 96(8): 498-506).
CTLs were seeded to make 1 or 10 cells/well in 96 round-bottomed microtiter plates (Nalge Nunc International). The CTLs were co-cultured with two types of Mitomycin C-treated human B lymphoblastoid cell lines at 1×10^4 cells in a total of 150 micro-1/well 5% AS-containing AIM-V medium with 30 ng/ml anti-CD3 antibody and 125 IU/ml IL-2. Ten days later, 50 micro-1 of IL-2 was added to the medium to reach a final IL-2 concentration of 125 IU/ml. On day 14, the CTL activity was tested, and the CTL clones were propagated using the same method as described above (Uchida N et al., Clin Cancer Res 2004, 10(24): 8577-86; Suda T et al., Cancer Sci 2006, 97(5): 411-9; Watanabe T et al., Cancer Sci 2005, 96(8): 498-506).
as §1

[3] = system: COS7 cells transfected with both KOC1 and HLA-A*0101; test: Specific CTL activity against target cells expressing KOC1 and HLA-A*0101; format: cell-based, African green monkey; details: listed as KOC1-A01-9-96
Protocol: as §1
A cDNA encoding the open-reading frame of a target gene or HLA-A*0101 was amplified by PCR. The PCR-amplified product was cloned into an expression vector. Expression vectors were transfected using Lipofectamine 2000 (Invitrogen) following the manufacturer's recommended protocol. Two days after transfection, the transfected cells were harvested using versene (Invitrogen), and used as the stimulator cell for CTL activity assay (5×10^4 cells/well).
The CTL clone established against KOC1-A01-9-96 (SEQ ID NO: 86) was investigated for its ability to recognize target cells expressing KOC1 and the HLA-A*0101 molecule. COS7 cells transfected with both full-length KOC1 and the HLA-A*0101 gene (a specific model of target cells expressing KOC1 and the HLA-A*0101 gene) were prepared as the target cell. COS7 cells transfected with either full-length KOC1 or HLA-A*0101 were prepared as the control.

VLDSLLVQY (a peptide derived from KOC1) [SEQ ID NO: 86]
peptide-specific CTL activity (IFN-gamma production), ELISPOT (peptide-pulsed C1R-A01 [1]): potent IFN-gamma production
IFN-gamma production of CTL clone, ELISA (peptide-pulsed C1R-A01 [2]; CTL clone by limiting dilution, peptide-pulsed C1R-A01, listed as KOC1-A01-9-96): Potent IFN-gamma production
IFN-gamma production of CTL lines, ELISA (peptide-pulsed C1R-A01 [2]; CTL lines, target cells pulsed with the peptide vs not pulsed, C1R-A01): potent IFN-gamma production
specific CTL activity of CTL clone against target cells expressing KOC1 and HLA-A*0101 ([3]; COS7 transfected with both full-length KOC1 and HLA-A*0101): specific CTL activity; also recorded: potent CTL activities
specific CTL activity of CTL clone against control cells ([3]; COS7 transfected with either full-length KOC1 or HLA-A*0101): a significant specific CTL activity was not shown; also recorded: a significant specific CTL activity was not detected
